Tests used:
Assay type in all cases: in vivo
[1] = tested on: barnyardgrass (Echinochloa crus-galli); assay: Test B flooded paddy test; settings: for Plant response rating, Flood, Barnyardgrass: 250 g ai/ha, flooded paddy test, visual rating on 0 to 100 scale (0 no effect, 100 complete control) after 13 to 15 days; for Plant response rating, Barnyardgrass: Flood (flooded paddy test), 13 to 15 days
Summary of the method: (§1)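 Rice, umbrella sedge, ducksalad and barnyardgrass were grown to the 2-leaf stage, flooded to 3 cm, and compound was applied directly to the paddy water, with that depth kept throughout. After 13 to 15 days in the greenhouse, plants were visually rated against controls on a 0 (no effect) to 100 (complete control) scale.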

rice (Oryza sativa) = assay: Test B flooded paddy test; settings: for Plant response rating, Flood, Rice: 250 g ai/ha, flooded paddy test, visual rating on 0 to 100 scale (0 no effect, 100 complete control) after 13 to 15 days; for Plant response rating, Rice: Flood (flooded paddy test), 13 to 15 days
Summary of the method: as §1

[2] = tested on: umbrella sedge (Cyperus difformis); assay: Test B flooded paddy test; settings: for Plant response rating, Flood, Sedge, Umbrella: 250 g ai/ha, flooded paddy test, visual rating on 0 to 100 scale (0 no effect, 100 complete control) after 13 to 15 days; for Plant response rating, Sedge, Umbrella: Flood (flooded paddy test), 13 to 15 days
Summary of the method: as §1

[3] = tested on: ducksalad (Heteranthera limosa); assay: Test B flooded paddy test; settings: for Plant response rating, Flood, Ducksalad: 250 g ai/ha, flooded paddy test, visual rating on 0 to 100 scale (0 no effect, 100 complete control) after 13 to 15 days; for Plant response rating, Ducksalad: Flood (flooded paddy test), 13 to 15 days
Summary of the method: as §1

[4] = tested on: barnyardgrass (Echinochloa crus-galli); assay: Test A pre-/postemergence plant response
Summary of the method: (§2)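 Each species was treated preemergence via directed soil spray and postemergence at the one- to two-leaf stage, with compounds formulated in a non-phytotoxic solvent plus surfactant. Visual injury relative to untreated controls was rated after about ten days on a 0–100 scale.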

[5] = tested on: pigweed (Amaranthus retroflexus); assay: Test A pre-/postemergence plant response
Summary of the method: as §2

[6] = tested on: large crabgrass (Digitaria sanguinalis); assay: Test A pre-/postemergence plant response
Summary of the method: as §2

[7] = tested on: wheat (Triticum aestivum); assay: Test A pre-/postemergence plant response
Summary of the method: as §2

[8] = tested on: velvetleaf (Abutilon theophrasti); assay: Test A pre-/postemergence plant response
Summary of the method: as §2

[9] = tested on: morningglory (Ipomoea spp.); assay: Test A pre-/postemergence plant response
Summary of the method: as §2

corn (Zea mays) = assay: Test A pre-/postemergence plant response
Summary of the method: as §2

[10] = tested on: giant foxtail (Setaria faberii); assay: Test A pre-/postemergence plant response
Summary of the method: as §2

[11] = 62 g ai/ha, scale of 0 to 100 where 0 is no effect and 100 is complete control
[12] = 125 g ai/ha, scale 0 to 100, 0 is no effect, 100 is complete control
[13] = Flood, 31 g ai/ha, scale 0 to 100 (0 no effect, 100 complete control)
[14] = Postemergence, 125 g ai/ha, 0 to 100 scale where 0 is no effect and 100 is complete control
[15] = Postemergence, 500 g ai/ha, visual injury, 0 to 100 scale (0 no effect, 100 complete control), approx. ten days
[16] = Preemergence, 125 g ai/ha, 0 to 100 scale, 0 = no effect, 100 = complete control
[17] = Preemergence, 500 g ai/ha, 0 to 100 scale, 0 = no effect, 100 = complete control
[18] = 62 g ai/ha, scale 0 to 100, 0 is no effect, 100 is complete control
[19] = Postemergence, 125 g ai/ha, visual injury, 0 to 100 scale (0 no effect, 100 complete control), approx. ten days
[20] = Postemergence, 500 g ai/ha, 0 to 100 scale, 0 = no effect, 100 = complete control, approx. ten days
[21] = Preemergence, 500 g ai/ha, visual injury, 0 to 100 scale (0 no effect, 100 complete control), approx. ten days

With `Cc1ccccc1-n1c(-c2cccc(Br)c2)ncc(C(=O)C2=C(O)CCCC2=O)c1=O` [Compound 209] the “Plant response rating, Flood, Barnyardgrass” value [1] was 20, the “Plant response rating, Barnyardgrass” value [1, 11] was 0 and the “Plant response rating, Barnyardgrass” value [1, 12] was 0. For the same compound, the “Barnyardgrass plant response rating” value [1, 13] was 0, the “Plant response rating, Flood, Rice” value (rice (Oryza sativa)) was 20 and the “Plant response rating, Rice” value (rice (Oryza sativa); [11]) was 0. The “Plant response rating, Rice” value (rice (Oryza sativa); [12]) was 10, the “Rice plant response rating” value (rice (Oryza sativa); [13]) was 0 and the “Plant response rating, Flood, Sedge, Umbrella” value [2] was 80. For the same compound, the “Plant response rating, Sedge, Umbrella” value [2, 11] was 50, the “Plant response rating, Sedge, Umbrella” value [2, 12] was 70 and the “Sedge, Umbrella plant response rating” value [2, 13] was 0. The “Plant response rating, Flood, Ducksalad” value [3] was 85, the “Plant response rating, Ducksalad” value [3, 11] was 50 and the “Plant response rating, Ducksalad” value [3, 12] was 85. For the same compound, the “Ducksalad plant response rating” value [3, 13] was 0, the “Plant response rating, Barnyardgrass” value [4, 14] was 80 and the “Barnyardgrass plant response rating” value [4, 15] was 100. For the same compound, the “Plant response rating, Barnyardgrass” value [4, 16] was 0, the “Plant response rating, Barnyardgrass” value [4, 17] was 50 and the “Plant response rating, Pigweed” value [5, 14] was 60. For the same compound, the “Pigweed plant response rating” value [5, 15] was 100, the “Plant response rating, Pigweed” value [5, 16] was 0 and the “Plant response rating, Pigweed” value [5, 17] was 70. The “Plant response rating, Crabgrass, Large” value [6, 14] was 50, the “Crabgrass, Large plant response rating” value [6, 15] was 100 and the “Plant response rating, Crabgrass, Large” value [6, 16] was 20. For the same compound, the “Plant response rating, Crabgrass, Large” value [6, 17] was 70, the “Plant response rating, Wheat” value [7, 14] was 0 and the “Wheat plant response rating” value [7, 15] was 0. The “Plant response rating, Wheat” value [7, 16] was 0, the “Plant response rating, Wheat” value [7, 17] was 0 and the “Plant response rating, Velvetleaf” value [8, 14] was 100. The “Velvetleaf plant response rating” value [8, 15] was 100, the “Plant response rating, Velvetleaf” value [8, 16] was 60 and the “Plant response rating, Velvetleaf” value [8, 17] was 100. The “Plant response rating, Morningglory” value [9, 14] was 30, the “Morningglory plant response rating” value [9, 15] was 100 and the “Plant response rating, Morningglory” value [9, 16] was 0. The “Plant response rating, Morningglory” value [9, 17] was 30, the “Plant response rating, Corn” value (corn (Zea mays); [14]) was 0 and the “Corn plant response rating” value (corn (Zea mays); [15]) was 40. The “Plant response rating, Corn” value (corn (Zea mays); [16]) was 0, the “Plant response rating, Corn” value (corn (Zea mays); [17]) was 20 and the “Plant response rating, Foxtail, Giant” value [10, 14] was 60. The “Foxtail, Giant plant response rating” value [10, 15] was 100, the “Plant response rating, Foxtail, Giant” value [10, 16] was 10 and the “Plant response rating, Foxtail, Giant” value [10, 17] was 60.

In the case of `Cc1ccc(-n2c(-c3ccccc3)ncc(C(=O)C3=C(O)CCCC3=O)c2=O)c(Cl)c1` [Compound 41], the “Plant response rating, Flood, Barnyardgrass” value [1] is reported as 30, the “Plant response rating, Barnyardgrass” value [1, 18] is reported as 0 and the “Plant response rating, Flood, Rice” value (rice (Oryza sativa)) is reported as 0. For the same compound, the “Plant response rating, Rice” value (rice (Oryza sativa); [18]) was 0, the “Plant response rating, Flood, Sedge, Umbrella” value [2] was 80 and the “Plant response rating, Sedge, Umbrella” value [2, 18] was 70. The “Plant response rating, Flood, Ducksalad” value [3] was 75, the “Plant response rating, Ducksalad” value [3, 18] was 70 and the “Barnyardgrass plant response rating” value [4, 19] was 50. For the same compound, the “Plant response rating, Barnyardgrass” value [4, 20] was 90, the “Plant response rating, Barnyardgrass” value [4, 16] was 0 and the “Plant response rating, Barnyardgrass” value [4, 21] was 80. For the same compound, the “Pigweed plant response rating” value [5, 19] was 100, the “Plant response rating, Pigweed” value [5, 20] was 100 and the “Plant response rating, Pigweed” value [5, 16] was 90. The “Plant response rating, Pigweed” value [5, 21] was 90, the “Crabgrass, Large plant response rating” value [6, 19] was 20 and the “Plant response rating, Crabgrass, Large” value [6, 20] was 70. The “Plant response rating, Crabgrass, Large” value [6, 16] was 20, the “Plant response rating, Crabgrass, Large” value [6, 21] was 80 and the “Wheat plant response rating” value [7, 19] was 0. The “Plant response rating, Wheat” value [7, 20] was 0, the “Plant response rating, Wheat” value [7, 16] was 0 and the “Plant response rating, Wheat” value [7, 21] was 0. For the same compound, the “Velvetleaf plant response rating” value [8, 19] was 100, the “Plant response rating, Velvetleaf” value [8, 20] was 100 and the “Plant response rating, Velvetleaf” value [8, 16] was 30. The “Plant response rating, Velvetleaf” value [8, 21] was 80, the “Morningglory plant response rating” value [9, 19] was 10 and the “Plant response rating, Morningglory” value [9, 20] was 70. For the same compound, the “Plant response rating, Morningglory” value [9, 16] was 0, the “Plant response rating, Morningglory” value [9, 21] was 20 and the “Corn plant response rating” value (corn (Zea mays); [19]) was 0. The “Plant response rating, Corn” value (corn (Zea mays); [20]) was 10, the “Plant response rating, Corn” value (corn (Zea mays); [16]) was 0 and the “Plant response rating, Corn” value (corn (Zea mays); [21]) was 0. The “Foxtail, Giant plant response rating” value [10, 19] was 20, the “Plant response rating, Foxtail, Giant” value [10, 20] was 80 and the “Plant response rating, Foxtail, Giant” value [10, 16] was 10. For the same compound, the “Plant response rating, Foxtail, Giant” value [10, 21] was 30.
